Patent US20100143935A1, “c-KIT Phosphorylation in Cancer” (Apocell, Inc., priority 2006, published 2010)
Entries after “also recorded” stand apart in the source; their conditions may differ.

Key:
[1] = test system: c-KIT phosphorylation at Y721; experiment: Laser scanning cytometry of phospho-Y721 c-KIT in tumor biopsies before and 2 weeks after imatinib; type: in vivo, human; details: responder, tumor biopsy 2 weeks after treatment vs baseline
Excerpt: FIG. 2. […] Tumor biopsies were stained by anti-phospho-Y721 c-KIT antibody followed by secondary antibody conjugated with a fluorescence probe. Laser scanning cytometry (LSC) was used to analyze the […] (MFI) across the tumor biopsies.
FIG. 3. […] (Top panels), Tumor biopsies obtained from the responder at baseline and 2 weeks after treatment (Post-treatment) were stained by anti-phospho-Y721 c-KIT antibody followed by secondary antibody conjugated with a fluorescence probe. Representative images are shown. The tumor sample stained only by the secondary antibody serves as a negative control. (Bottom panels), LSC was used to analyze the intensity of the phospho-Y721 of c-KIT (Cy5) across the entire cross section of tumor biopsies.
For c-KIT phosphorylation, tumor biopsies obtained at baseline (pre-treatment) and during the second week of treatment (post-treatment) were assayed. […] We also examined the levels of phospho-Y703.

[2] = test system: endothelial and tumor cells; experiment: CD31-TUNEL dual immunofluorescence of tumor biopsies before and 2 weeks after imatinib; type: in vivo, human; details: for apoptosis of endothelial and tumor cells: responder, after 2 weeks of imatinib treatment
Excerpt: FIG. 4. […] The stained samples were further analyzed for apoptotic cells by TUNEL assay (green). Representative images are shown. The corresponding CD31 and TUNEL images are merged (Composite).

[3] = test system: MeWo stable cell lines expressing PK or with PTP knock down; experiment: Imatinib sensitivity of stable MeWo cell lines expressing PK or with PTP knock down; type: cell-based, human; details: PK-expressing or PTP knock down lines vs empty vector control cells
melanoma = details: 800 mg/day; 26 patients; cited from earlier work
Phospho-c-KIT (Y721) = target: T1, Phospho-c-KIT (Y721) (Homo sapiens, UniProt P10721); experiment: c-KIT phosphorylation (Y721) in GIST patients treated with sunitinib; type: in vivo
T1 construct: GIST Patients Treated with Sunitinib; from tissue; host or cells: tumour material of GIST patients treated with sunitinib

Phospho-c-KIT (Y703) = target: T2, Phospho-c-KIT (Y703) (Homo sapiens, UniProt P10721); experiment: c-KIT phosphorylation (Y703) in GIST patients treated with sunitinib; type: in vivo
T2 construct: GIST Patients Treated with Sunitinib; from tissue; host or cells: tumour material of GIST patients treated with sunitinib
T2 sequence (P10721 26-976): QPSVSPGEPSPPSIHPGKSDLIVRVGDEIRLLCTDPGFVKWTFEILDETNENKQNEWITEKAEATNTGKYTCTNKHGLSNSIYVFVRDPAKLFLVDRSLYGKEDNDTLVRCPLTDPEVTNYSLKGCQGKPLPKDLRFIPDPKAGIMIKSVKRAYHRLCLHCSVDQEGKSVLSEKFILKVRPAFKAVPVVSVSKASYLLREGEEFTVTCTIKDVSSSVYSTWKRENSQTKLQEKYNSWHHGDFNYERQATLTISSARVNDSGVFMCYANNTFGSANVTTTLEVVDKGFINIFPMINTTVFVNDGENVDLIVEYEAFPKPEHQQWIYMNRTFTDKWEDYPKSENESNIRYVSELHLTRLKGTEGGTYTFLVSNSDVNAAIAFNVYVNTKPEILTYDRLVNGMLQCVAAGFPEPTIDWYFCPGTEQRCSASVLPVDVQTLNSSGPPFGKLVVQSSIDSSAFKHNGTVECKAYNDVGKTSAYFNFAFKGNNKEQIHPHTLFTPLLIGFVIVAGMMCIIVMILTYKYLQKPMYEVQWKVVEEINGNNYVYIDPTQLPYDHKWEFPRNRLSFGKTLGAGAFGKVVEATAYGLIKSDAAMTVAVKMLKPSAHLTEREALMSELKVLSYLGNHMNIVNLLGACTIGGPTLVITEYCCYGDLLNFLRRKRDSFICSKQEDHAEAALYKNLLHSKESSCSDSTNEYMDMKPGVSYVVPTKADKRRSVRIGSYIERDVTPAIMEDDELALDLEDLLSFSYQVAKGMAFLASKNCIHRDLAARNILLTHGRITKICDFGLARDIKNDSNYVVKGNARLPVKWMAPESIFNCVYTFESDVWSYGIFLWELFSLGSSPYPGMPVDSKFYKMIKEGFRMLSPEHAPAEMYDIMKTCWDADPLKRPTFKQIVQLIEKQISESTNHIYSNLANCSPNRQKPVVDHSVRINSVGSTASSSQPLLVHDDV

T1 sequence (P10721 26-976): as above

Structure (SMILES)	levels of phospho-Y721 of c-KIT after imatinib treatment [1]	levels of phospho-Y721 of c-KIT after imatinib treatment ([1]; listed as imatinib)	increase of apoptotic endothelial and tumor cells ([2]; nonresponding patients' tumors)	apoptosis of endothelial and tumor cells [2]	apoptosis of endothelial and tumor cells ([2]; listed as imatinib)	sensitivity to imatinib-induced growth inhibition and apoptosis [3]	toxicity (melanoma)	Phospho-c-KIT (Y721) change (Phospho-c-KIT (Y721); NON-Responder) [% increase]	Phospho-c-KIT (Y721) change (Phospho-c-KIT (Y721); Responder) [% decrease]	Phospho-c-KIT (Y703) change (Phospho-c-KIT (Y703); NON-Responder) [% increase]	Phospho-c-KIT (Y703) change (Phospho-c-KIT (Y703); Responder) [% decrease]
Cc1ccc(NC(=O)c2ccc(CN3CCN(C)CC3)cc2)cc1Nc1nccc(-c2cccnc2)n1 [Imatinib]	inhibits	significantly reduced; also recorded: significant inhibition	not seen	induces	higher levels of apoptosis; also recorded: substantial increase	more sensitive	significant toxicity	–	–	–	–
CCN(CC)CCNC(=O)c1c(C)[nH]c(/C=C2\C(=O)Nc3ccc(F)cc32)c1C [Sunitinib, N-[2-(diethylamino)ethyl]-5-[(Z)-(5-fluoro-2-oxo-1,2-dihydro-3H-indol-3-ylidene)methyl]-2,4-dimethyl-1H-pyrrole-3-carboxamide]	–	–	–	–	–	–	–	117	94	45	57
